{"source": "paper PMC8380825", "about": "(Journal of molecular biology, 2021)", "key": {"NPR-1 [1]": {"molecular_target": "T1, NPR-1 (Caenorhabditis elegans, UniProt Q18534)", "T1 sequence (Q18534 1-457)": "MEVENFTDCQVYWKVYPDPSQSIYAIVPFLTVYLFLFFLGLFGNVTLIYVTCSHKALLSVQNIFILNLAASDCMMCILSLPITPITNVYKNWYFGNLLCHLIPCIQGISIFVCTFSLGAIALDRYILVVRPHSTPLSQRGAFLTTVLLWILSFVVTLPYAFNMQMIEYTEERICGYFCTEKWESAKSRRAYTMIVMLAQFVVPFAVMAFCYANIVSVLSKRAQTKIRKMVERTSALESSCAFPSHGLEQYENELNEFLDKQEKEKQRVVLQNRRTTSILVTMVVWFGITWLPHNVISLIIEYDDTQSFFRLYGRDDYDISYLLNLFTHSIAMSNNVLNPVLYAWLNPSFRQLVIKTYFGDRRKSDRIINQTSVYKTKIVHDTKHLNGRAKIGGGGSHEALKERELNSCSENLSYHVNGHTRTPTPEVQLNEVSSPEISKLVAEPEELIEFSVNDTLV", "details": "read-out: EC50 at NPR-1; ref [13]; cited from earlier work"}, "NPR-1 [2]": {"molecular_target": "T1, NPR-1", "experiment": "cAMP reporter gene assay", "assay_type": "cell-based, C. elegans", "details": "wild type NPR-1"}, "NPR-11 [3]": {"molecular_target": "T2, NPR-11 (Caenorhabditis elegans, UniProt Q18179)", "T2 sequence (Q18179 1-402)": "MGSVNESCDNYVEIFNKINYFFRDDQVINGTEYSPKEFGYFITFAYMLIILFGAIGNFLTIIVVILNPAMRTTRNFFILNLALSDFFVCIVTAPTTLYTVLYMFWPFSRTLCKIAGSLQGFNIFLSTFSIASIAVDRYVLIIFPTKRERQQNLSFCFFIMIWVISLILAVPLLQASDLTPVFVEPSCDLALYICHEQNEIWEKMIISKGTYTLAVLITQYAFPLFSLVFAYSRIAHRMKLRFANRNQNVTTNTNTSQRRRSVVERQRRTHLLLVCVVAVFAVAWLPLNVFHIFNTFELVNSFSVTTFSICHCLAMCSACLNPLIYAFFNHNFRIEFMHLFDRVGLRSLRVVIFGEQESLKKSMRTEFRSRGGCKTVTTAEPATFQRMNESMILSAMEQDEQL", "experiment": "cAMP reporter gene assay", "assay_type": "cell-based, C. elegans"}, "NPR-11 mutants [4]": {"molecular_target": "NPR-11 mutants (Caenorhabditis elegans, UniProt Q18179, Q119A)", "sequence (Q18179 whole entry Q119A)": "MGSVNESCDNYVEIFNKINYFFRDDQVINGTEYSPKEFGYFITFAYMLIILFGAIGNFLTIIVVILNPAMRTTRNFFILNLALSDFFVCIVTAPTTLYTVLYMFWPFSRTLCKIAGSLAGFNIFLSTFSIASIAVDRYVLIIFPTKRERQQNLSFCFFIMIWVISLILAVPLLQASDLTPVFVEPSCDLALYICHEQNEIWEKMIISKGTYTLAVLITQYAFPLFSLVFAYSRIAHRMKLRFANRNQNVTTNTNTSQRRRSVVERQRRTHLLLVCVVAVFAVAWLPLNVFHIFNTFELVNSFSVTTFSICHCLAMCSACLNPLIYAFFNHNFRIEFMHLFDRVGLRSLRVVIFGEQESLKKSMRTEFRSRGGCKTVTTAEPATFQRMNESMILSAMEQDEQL", "experiment": "cAMP reporter gene assay", "assay_type": "cell-based, C. elegans"}, "NPR-11 [5]": {"molecular_target": "T2, NPR-11", "experiment": "NanoBRET displacement binding assay, Nluc-NPR-11 wild type", "design": "species or system C. elegans"}, "[6]": {"molecular_target": "Q^3.32A variant of NPR-11 (Caenorhabditis elegans, UniProt Q18179, Q119A)", "sequence (Q18179 whole entry Q119A)": "as above", "experiment": "NanoBRET displacement binding assay, Nluc-NPR-11 Q^3.32A variant", "design": "species or system C. elegans"}, "NPR-1 mutants [7]": {"molecular_target": "NPR-1 mutants (Caenorhabditis elegans, UniProt Q18534, D303A/D304A/E301A)", "sequence (Q18534 whole entry E301A/D303A/D304A)": "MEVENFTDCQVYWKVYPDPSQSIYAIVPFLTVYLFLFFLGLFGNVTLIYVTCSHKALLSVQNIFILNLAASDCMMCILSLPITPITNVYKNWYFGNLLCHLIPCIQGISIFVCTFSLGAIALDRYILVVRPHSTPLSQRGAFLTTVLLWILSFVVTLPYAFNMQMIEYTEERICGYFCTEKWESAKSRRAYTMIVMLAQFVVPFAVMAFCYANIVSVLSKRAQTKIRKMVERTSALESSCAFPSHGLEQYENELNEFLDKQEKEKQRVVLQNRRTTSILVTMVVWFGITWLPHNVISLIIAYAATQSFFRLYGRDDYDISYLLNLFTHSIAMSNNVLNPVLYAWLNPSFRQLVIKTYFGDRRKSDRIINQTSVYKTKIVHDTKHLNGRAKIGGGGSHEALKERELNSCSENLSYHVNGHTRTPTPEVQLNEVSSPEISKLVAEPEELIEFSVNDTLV", "experiment": "cAMP reporter gene assay", "assay_type": "cell-based, C. elegans"}, "NPR-1 mutants [8]": {"molecular_target": "NPR-1 mutants (Caenorhabditis elegans, UniProt Q18534, D315A)", "sequence (Q18534 whole entry D315A)": "as the sequence (Q18534 whole entry E301A/D303A/D304A) above, with A301E, A303D, A304D, D315A counted along it", "experiment": "cAMP reporter gene assay", "assay_type": "cell-based, C. elegans", "details": "NPR-1 D^7.26A mutant"}, "NPR-1 mutants [9]": {"molecular_target": "NPR-1 mutants (Caenorhabditis elegans, UniProt Q18534, D316A)", "sequence (Q18534 whole entry D316A)": "as the sequence (Q18534 whole entry E301A/D303A/D304A) above, with A301E, A303D, A304D, D316A counted along it", "experiment": "cAMP reporter gene assay", "assay_type": "cell-based, C. elegans", "details": "NPR-1 D^7.27A mutant"}, "NPR-1 mutants [10]": {"molecular_target": "NPR-1 mutants (Caenorhabditis elegans, UniProt Q18534, E180A)", "sequence (Q18534 whole entry E180A)": "as the sequence (Q18534 whole entry E301A/D303A/D304A) above, with E180A, A301E, A303D, A304D counted along it", "experiment": "cAMP reporter gene assay", "assay_type": "cell-based, C. elegans"}, "NPR-1 mutants [11]": {"molecular_target": "NPR-1 mutants (Caenorhabditis elegans, UniProt Q18534, E180D)", "sequence (Q18534 whole entry E180D)": "as the sequence (Q18534 whole entry E301A/D303A/D304A) above, with E180D, A301E, A303D, A304D counted along it", "experiment": "cAMP reporter gene assay", "assay_type": "cell-based, C. elegans"}, "NPR-1 mutants [12]": {"molecular_target": "NPR-1 mutants (Caenorhabditis elegans, UniProt Q18534, E180Q)", "sequence (Q18534 whole entry E180Q)": "as the sequence (Q18534 whole entry E301A/D303A/D304A) above, with E180Q, A301E, A303D, A304D counted along it", "experiment": "cAMP reporter gene assay", "assay_type": "cell-based, C. elegans"}, "NPR-1 mutants [13]": {"molecular_target": "NPR-1 mutants (Caenorhabditis elegans, UniProt Q18534, E301A)", "sequence (Q18534 whole entry E301A)": "as the sequence (Q18534 whole entry E301A/D303A/D304A) above, with A303D, A304D counted along it", "experiment": "cAMP reporter gene assay", "assay_type": "cell-based, C. elegans"}, "NPR-1 mutants [14]": {"molecular_target": "NPR-1 mutants (Caenorhabditis elegans, UniProt Q18534, E301D)", "sequence (Q18534 whole entry E301D)": "as the sequence (Q18534 whole entry E301A/D303A/D304A) above, with A301D, A303D, A304D counted along it", "experiment": "cAMP reporter gene assay", "assay_type": "cell-based, C. elegans"}, "NPR-1 mutants [15]": {"system": "NPR-1 mutants", "experiment": "cAMP reporter gene assay", "assay_type": "cell-based, C. elegans", "details": "mutation of T^2.61 and Q^3.32 of NPR-1"}, "NPR-11 mutants [16]": {"molecular_target": "NPR-11 mutants (Caenorhabditis elegans, UniProt Q18179, E196A)", "sequence (Q18179 whole entry E196A)": "as the sequence (Q18179 whole entry Q119A) above, with A119Q, E196A counted along it", "experiment": "cAMP reporter gene assay", "assay_type": "cell-based, C. elegans"}, "NPR-11 mutants [17]": {"molecular_target": "NPR-11 mutants (Caenorhabditis elegans, UniProt Q18179, E196D)", "sequence (Q18179 whole entry E196D)": "as the sequence (Q18179 whole entry Q119A) above, with A119Q, E196D counted along it", "experiment": "cAMP reporter gene assay", "assay_type": "cell-based, C. elegans", "details": "NPR-11 E^5.23D"}, "NPR-11 mutants [18]": {"molecular_target": "NPR-11 mutants (Caenorhabditis elegans, UniProt Q18179, E196Q)", "sequence (Q18179 whole entry E196Q)": "as the sequence (Q18179 whole entry Q119A) above, with A119Q, E196Q counted along it", "experiment": "cAMP reporter gene assay", "assay_type": "cell-based, C. elegans"}, "NPR-11 mutants [19]": {"molecular_target": "NPR-11 mutants (Caenorhabditis elegans, UniProt Q18179, E199A)", "sequence (Q18179 whole entry E199A)": "as the sequence (Q18179 whole entry Q119A) above, with A119Q, E199A counted along it", "experiment": "cAMP reporter gene assay", "assay_type": "cell-based, C. elegans", "details": "NPR-11 E^5.26A"}, "NPR-11 mutants [20]": {"molecular_target": "NPR-11 mutants (Caenorhabditis elegans, UniProt Q18179, F307A)", "sequence (Q18179 whole entry F307A)": "as the sequence (Q18179 whole entry Q119A) above, with A119Q, F307A counted along it", "experiment": "cAMP reporter gene assay", "assay_type": "cell-based, C. elegans", "details": "NPR-11 F^7.35A"}, "NPR-11 mutants [21]": {"molecular_target": "NPR-11 mutants (Caenorhabditis elegans, UniProt Q18179, Q119H)", "sequence (Q18179 whole entry Q119H)": "as the sequence (Q18179 whole entry Q119A) above, with A119H counted along it", "experiment": "cAMP reporter gene assay", "assay_type": "cell-based, C. elegans", "details": "NPR-11 Q^3.32H"}, "NPR-11 mutants [22]": {"molecular_target": "NPR-11 mutants (Caenorhabditis elegans, UniProt Q18179, T96A)", "sequence (Q18179 whole entry T96A)": "as the sequence (Q18179 whole entry Q119A) above, with T96A, A119Q counted along it", "experiment": "cAMP reporter gene assay", "assay_type": "cell-based, C. elegans", "details": "NPR-11 T^2.61A"}, "NPR-11 mutants [23]": {"system": "NPR-11 mutants", "experiment": "cAMP reporter gene assay", "assay_type": "cell-based, C. elegans"}}, "note": "Where no end group is shown, it is not given here."}
{"substance": "RGPSGPLRF-NH2 [FLP-15–2]", "values": [{"measurement": "EC50", "setting": "NPR-1 [1]", "value": 22, "unit": "nM"}]}
{"substance": "[L^7A]-FLP-21: FLP-21 variant, L^7 to alanine (GLGPRPARF-NH2)", "values": [{"measurement": "EC50 shift (loss of potency) relative to wild type FLP-21", "setting": "NPR-1 [2]", "value": 497, "unit": "fold"}, {"measurement": "EC50 shift relative to wild type FLP-21", "setting": "NPR-11 [3]; wild type NPR-11", "value": 10, "unit": "fold"}, {"measurement": "EC50 shift compared to FLP-21 at the same receptor mutant", "setting": "NPR-11 mutants [4]; NPR-11 Q^3.32A", "value": 300, "unit": "fold"}, {"measurement": "reduction of Ki relative to FLP-21", "setting": "NPR-11 [5]", "value": "less than 10 fold"}, {"measurement": "reduction of Ki compared to FLP-21", "setting": "[6]", "value": 100, "unit": "fold"}]}
{"substance": "GLGPRPLRF-NH2 [FLP-21]", "values": [{"measurement": "EC50", "setting": "NPR-1 mutants [7]", "value": "> 10000", "unit": "nM"}, {"measurement": "EC50 shift relative to wild type receptor", "setting": "NPR-1 mutants [8]", "value": "< 5", "unit": "fold"}, {"measurement": "EC50 shift relative to wild type receptor", "setting": "NPR-1 mutants [9]", "value": "< 5", "unit": "fold"}, {"measurement": "EC50", "setting": "NPR-1 mutants [10]", "value": "> 10000", "unit": "nM"}, {"measurement": "EC50", "setting": "NPR-1 mutants [11]", "value": 495, "unit": "nM"}, {"measurement": "EC50 shift relative to wild type receptor", "setting": "NPR-1 mutants [11]; NPR-1 E^5.27D", "value": "> 600", "unit": "fold"}, {"measurement": "EC50", "setting": "NPR-1 mutants [12]", "value": "> 10000", "unit": "nM"}, {"measurement": "EC50", "setting": "NPR-1 mutants [13]", "value": 20, "unit": "nM"}, {"measurement": "EC50 shift relative to wild type NPR-1", "setting": "NPR-1 mutants [13]; NPR-1 E^6.59A", "value": 25, "unit": "fold"}, {"measurement": "EC50", "setting": "NPR-1 mutants [14]", "value": 0.13, "unit": "nM"}, {"measurement": "decrease of receptor activation relative to wild type receptor", "setting": "NPR-1 mutants [15]", "value": "> 30", "unit": "fold"}, {"measurement": "reduced potency at NPR-11 compared to NPR-1", "setting": "NPR-11 [3]; EC50 NPR-11 versus EC50 NPR-1", "value": 64, "unit": "fold"}, {"measurement": "EC50", "setting": "NPR-11 mutants [16]", "value": "> 10000", "unit": "nM"}, {"measurement": "decreased potency relative to wild type receptor", "setting": "NPR-11 mutants [17]", "value": "> 70", "unit": "fold"}, {"measurement": "EC50", "setting": "NPR-11 mutants [18]", "value": "> 10000", "unit": "nM"}, {"measurement": "receptor activation in words", "setting": "NPR-11 mutants [19]", "value": "inactive"}, {"measurement": "receptor activation in words", "setting": "NPR-11 mutants [20]", "value": "inactive"}, {"measurement": "EC50", "setting": "NPR-11 mutants [4]", "value": 0.1, "unit": "nM"}, {"measurement": "EC50 as fold of the wild type receptor", "setting": "NPR-11 mutants [4]; NPR-11 Q^3.32A", "value": 0.002, "unit": "fold"}, {"measurement": "gain of function relative to wild type receptor", "setting": "NPR-11 mutants [4]; NPR-11 Q^3.32A", "value": "> 500", "unit": "fold"}, {"measurement": "receptor activation in words", "setting": "NPR-11 mutants [21]", "value": "did not affect activation"}, {"measurement": "EC50 shift relative to wild type receptor", "setting": "NPR-11 mutants [22]", "value": 4, "unit": "fold"}, {"measurement": "receptor activation in words", "setting": "NPR-11 mutants [23]; NPR-11 E^5.26 mutated to glutamine or aspartate", "value": "behaved like wild type"}, {"measurement": "EC50 shift relative to wild type receptor", "setting": "NPR-11 mutants [23]; NPR-11 F^7.35 to histidine or leucine", "value": "> 200", "unit": "fold"}, {"measurement": "receptor activation in words", "setting": "NPR-11 mutants [23]; NPR-11 T^6.59 and N^6.58 alanine mutants", "value": "wild type-like activities"}]}
